Results on four compounds are retold here after patent US20150315188A1, “COMPOUNDS AND METHODS FOR TREATMENT OF HYPERTENSION” (MEDIVATION TECHNOLOGIES, INC., priority 2012, published 2015).

In data set [1] the target is T1, Human adrenergic α2A receptor (Homo sapiens, UniProt P08913).
T1 sequence (P08913 1-465): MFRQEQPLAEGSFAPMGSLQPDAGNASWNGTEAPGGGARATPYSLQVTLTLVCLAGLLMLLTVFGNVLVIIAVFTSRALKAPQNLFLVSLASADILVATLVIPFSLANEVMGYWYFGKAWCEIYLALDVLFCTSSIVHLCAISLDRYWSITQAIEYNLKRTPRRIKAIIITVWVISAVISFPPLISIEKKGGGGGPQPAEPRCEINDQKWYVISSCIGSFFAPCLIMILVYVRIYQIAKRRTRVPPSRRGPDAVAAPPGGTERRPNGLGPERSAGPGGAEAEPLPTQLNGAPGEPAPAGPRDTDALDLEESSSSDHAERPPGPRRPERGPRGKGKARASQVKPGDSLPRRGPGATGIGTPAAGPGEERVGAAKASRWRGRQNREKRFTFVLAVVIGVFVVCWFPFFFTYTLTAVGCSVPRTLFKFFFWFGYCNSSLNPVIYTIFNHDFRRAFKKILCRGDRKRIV
Description: Radioligand binding, adrenergic α2A (Protocol Group A). The arrangement: expressed in transfected cells; host or cells: insect Sf9 cells. The conditions noted are these: 0.1 μM compound, [3H]MK-912, read-out: percent inhibition of specific binding, Adrenergic α2A. The procedure:
To evaluate in radioligand binding assays the activity of compounds of the invention, human recombinant adrenergic α2A receptor expressed in insect Sf9 cells (Uhlen, S. et al, J. Pharmacol. Exp. Ther. 271:1558, 1994) in a modified Tris-HCl buffer (50 mM Tris-HCl, pH 7.4, 12.5 mM MgCl2, 2 mM EDTA) was used. Compounds of invention were incubated with 1 nM [^3H]MK-912 for 60 min at 25° C. MK912 is (2S-trans)-1,3,4,5′,6,6′,7,12b-octahydro-1′,3′-dimethyl-spiro[2H-benzofuro[2,3-a]quinolizine-2,4′(1′H)-pyrimidin]-2′(3′H)-one hydrochloride. Non-specific binding was estimated in the presence of 10 μM WB-4101 (2-(2,6-Dimethoxyphenoxyethyl)aminomethyl-1,4-benzodioxane hydrochloride). Receptor proteins were filtered and washed, the filters were then counted to determine [^3H]MK-912 specifically bound. Compounds were screened at 1 μM or lower, using 1% DMSO as vehicle. Compounds of the invention were tested in this biochemical assay and percent inhibition of specific binding was determined. Biochemical assay results are presented as the percent inhibition of specific binding in Table B1a.

Data set [2] concerns the target T2, Human adrenergic α2B receptor (Homo sapiens, UniProt P18089).
T2 sequence (P18089 1-450): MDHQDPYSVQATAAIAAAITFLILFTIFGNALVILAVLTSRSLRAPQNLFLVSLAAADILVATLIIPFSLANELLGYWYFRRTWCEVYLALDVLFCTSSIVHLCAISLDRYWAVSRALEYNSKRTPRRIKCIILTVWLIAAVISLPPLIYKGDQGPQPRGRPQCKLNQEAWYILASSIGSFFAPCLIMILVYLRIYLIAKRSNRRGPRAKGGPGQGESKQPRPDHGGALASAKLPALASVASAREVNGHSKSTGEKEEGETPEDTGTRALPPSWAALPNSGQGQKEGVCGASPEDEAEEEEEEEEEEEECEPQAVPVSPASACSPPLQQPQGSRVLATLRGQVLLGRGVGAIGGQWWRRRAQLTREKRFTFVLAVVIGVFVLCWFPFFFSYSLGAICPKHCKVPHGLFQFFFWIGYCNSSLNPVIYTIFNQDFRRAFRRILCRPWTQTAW
In words: Radioligand binding, adrenergic α2B (Protocol Group A). Details: expressed in transfected cells; host or cells: CHO-K1. The note with it: 0.03 μM compound, [3H]Rauwolscine, read-out: percent inhibition of specific binding, Adrenergic α2B. The procedure: To evaluate in radioligand binding assays the activity of compounds of the invention, human recombinant adrenergic α2B receptor expressed in Chinese hamster ovary (CHO) K1 cells (Uhlen, S. et al, Eur. J. Pharmacol. 343(1):93, 1998) in a modified Tris-HCl buffer (50 mM Tris-HCl, pH 7.4, 12.5 mM MgCl2, 1 mM EDTA, 0.2% BSA) was used. Compounds of the invention were incubated with 2.5 nM [3H]Rauwolscine for 60 min at 25° C. Non-specific binding was estimated in the presence of 10 μM Prazosin. Receptor proteins were filtered and washed, the filters were then counted to determine [3H]Rauwolscine specifically bound. Compounds were screened at 1 μM or lower, using 1% DMSO as vehicle. Compounds of the invention were tested in this biochemical assay and percent inhibition of specific binding was determined. Biochemical assay results are presented as the percent inhibition of specific binding in Table B1a.

Data set [3] can be described thus: Epimerization of chiral compounds in simulated gastric fluid (SGF). The conditions noted are these: 24 h. Type of data set: physicochemical. The procedure: Epimerization Method for Studying Chiral Compounds in Simulated Gastric Fluid (SGF) and Stimulated Intestinal Fluid (SIF)
A measured quantity of sample was dissolved in SGF or SIF at the concentration of 1 mg/mL in a volumetric flask and appropriate number of aliquots of this solution were transferred to incubation vials as per the given time points. For the sample of zero hour, the appropriate volume of saturated Bicarbonate solution was added immediately to the sample, and was stirred for 5-10 mins. The compound was extracted in a suitable solvent (e.g. Ethyl acetate), decanting the organic layer. The organic solvent was evaporated, and the residue was dissolved in an appropriate solvent (Methanol/Ethanol), filtered through a 0.22 μm membrane filter and analyzed by chiral HPLC. The remaining aliquots were incubated at different temperatures i.e. 25° C. and 37° C. in a water bath as per the given time points. The respective samples were retrieved from the incubator/Water bath at different time intervals as per the given time points: 90 mins, 4 h, 6 h, 12 h and 24 h, and the same procedure for sample preparation was followed for the zero hour sample.
All the chromatograms were obtained at the specified wavelength, compiled and the curves between Time Vs % Area were plotted.

Structures are written as SMILES.

By inhibition is commonly meant the change of the read-out against control, counted positive when it falls.

As to `Cc1ccc2c(c1)c1c(n2CC(OC(=O)N2CCCC2)c2ccncc2)CCN(C)C1` (single isomer, unassigned) [4b], the inhibition at 0.1 µM in data set [1] stood at 28%. Also, the inhibition at 0.03 µM in data set [2] turned out to be 86%.
For the compound `Cc1ccc2c(c1)c1c(n2CC(C)(O)c2ccc(F)nc2)CCN2CCCC12` (single isomer, unassigned) [6a], the inhibition at 0.1 µM in data set [1] was found to be 59%. In data set [2], the inhibition at 0.03 µM was found to be 107%.
In the case of `Cc1ccc2c(c1)c1c(n2CC(O)c2ccncc2)CCN2CCCC12` (single isomer, unassigned) [Compound No. 178d], the values for the epimerization entry in data set [3] (25° C.) and in data set [3] (37° C.) were “up to 41.29%” and 50.13%, respectively.
Taken in the same sequence, the figures for `Cc1cc(F)c2c(c1)c1c(n2CC(C)(O)c2cccnc2)CCN2CCCC12` (centres unmarked) [Compound No. 79a] were 2% and 21.39%.
